Data from patent US11053204B2, “Pyrimidinyloxy benzene derivatives as herbicides” (FMC Corporation, priority 2015, dated 2021).

What was measured:
Assay type in all cases: in vivo
[1] = system: chickweed (common chickweed, Stellaria media); experiment: Test C postemergence, plant response rating; settings: Stellaria media, post-emergence; for pest or weed control at 16 g/ha: 16 g ai/ha; for pest or weed control at 16 g/ha / pest or weed control at 31 g/ha: scale 0 to 100; for pest or weed control at 31 g/ha: 31 g ai/ha; for pest or weed control at 62 g/ha: 62 g ai/ha; for pest or weed control at 62 g/ha / pest or weed control at 125 g/ha: scale 0 to 100 (0 no effect, 100 complete control); for pest or weed control at 125 g/ha: 125 g ai/ha
Method in brief: (§1)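 Preemergence: seeds sown in loam–sand blend or silt loam and sprayed with test chemicals in a non-phytotoxic surfactant-containing solvent. Postemergence: potted plants at 2–18 cm (1–4-leaf stage) sprayed with the same formulation. After 13–15 d in greenhouse, visual rating versus controls on 0 (no effect) to 100 (complete control) scale.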

kochia (Kochia scoparia) [2] = experiment: Test C postemergence, plant response rating; settings: Bassia scoparia, post-emergence; for pest or weed control at 16 g/ha: 16 g ai/ha; for pest or weed control at 16 g/ha / pest or weed control at 31 g/ha: scale 0 to 100; for pest or weed control at 31 g/ha: 31 g ai/ha; for pest or weed control at 62 g/ha: 62 g ai/ha; for pest or weed control at 62 g/ha / pest or weed control at 125 g/ha: scale 0 to 100 (0 no effect, 100 complete control); for pest or weed control at 125 g/ha: 125 g ai/ha
Method in brief: as §1

[3] = system: morningglory (Ipomoea coccinea); experiment: Test C postemergence, plant response rating; settings: Ipomoea, post-emergence; for pest or weed control at 16 g/ha: 16 g ai/ha; for pest or weed control at 16 g/ha / pest or weed control at 31 g/ha: scale 0 to 100; for pest or weed control at 31 g/ha: 31 g ai/ha; for pest or weed control at 62 g/ha: 62 g ai/ha; for pest or weed control at 62 g/ha / pest or weed control at 125 g/ha: scale 0 to 100 (0 no effect, 100 complete control); for pest or weed control at 125 g/ha: 125 g ai/ha
Method in brief: as §1

kochia (Kochia scoparia) [4] = experiment: Test A preemergence, visual injury rating; settings: Bassia scoparia, pre-emergence, 240 h, 0 to 100 scale (0 no effect, 100 complete control), read-out: Kochia plant response rating; for pest or weed control at 125 g/ha: 125 g ai/ha; for pest or weed control at 500 g/ha: 500 g ai/ha
Method in brief: (§2)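 Compounds in non-phytotoxic solvent with surfactant applied as soil spray preemergence, or postemergence to plants 2-10 cm at one- to two-leaf stage, in loam/sand. After approximately 10 days in greenhouse, injury rated visually versus untreated controls, 0 (no effect) to 100 (complete control).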

[5] = system: pigweed (Amaranthus retroflexus); experiment: Test A preemergence, visual injury rating; settings: Amaranthus retroflexus, pre-emergence, 240 h, 0 to 100 scale (0 no effect, 100 complete control), read-out: Pigweed plant response rating; for pest or weed control at 125 g/ha: 125 g ai/ha; for pest or weed control at 500 g/ha: 500 g ai/ha
Method in brief: as §2

[6] = system: ducksalad (Heteranthera limosa); experiment: Test B flooded paddy test, plant response rating; settings: Heteranthera limosa, 312 h; 250 g ai/ha; Flood; scale of 0 to 100 where 0 is no effect and 100 is complete control; 13 to 15 days
Method in brief: (§3)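 Test compounds are applied straight into paddy water held 3 cm above the soil surface, with that flood maintained for the whole test. After 13 to 15 days in the greenhouse, each species is scored visually relative to controls.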

[7] = system: barnyardgrass (Echinochloa crus-galli); experiment: Test B flooded paddy test, plant response rating; settings: Echinochloa crus-galli, 312 h; 250 g ai/ha; Flood; scale of 0 to 100 where 0 is no effect and 100 is complete control; 13 to 15 days
Method in brief: as §3

rice (Oryza sativa) = experiment: Test B flooded paddy test, plant response rating; settings: Oryza sativa, 312 h; 250 g ai/ha; Flood; scale of 0 to 100 where 0 is no effect and 100 is complete control; 13 to 15 days
Method in brief: as §3

[8] = system: sedge, umbrella (small-flower umbrella sedge, Cyperus difformis); experiment: Test B flooded paddy test, plant response rating; settings: Cyperus difformis, 312 h; 250 g ai/ha; Flood; scale of 0 to 100 where 0 is no effect and 100 is complete control; 13 to 15 days
Method in brief: as §3

[9] = system: ragweed (common ragweed, Ambrosia elatior); experiment: Test A postemergence, visual injury rating; settings: Ambrosia artemisiifolia, post-emergence, 240 h, 0 is no effect, 100 is complete control, read-out: Ragweed plant response rating (0 to 100 scale); for pest or weed control at 125 g/ha: 125 g ai/ha; for pest or weed control at 500 g/ha: 500 g ai/ha
Method in brief: as §2

kochia (Kochia scoparia) [10] = experiment: Test A postemergence, visual injury rating; settings: Bassia scoparia, post-emergence, 240 h, 0 is no effect, 100 is complete control, read-out: Kochia plant response rating (0 to 100 scale); for pest or weed control at 125 g/ha: 125 g ai/ha; for pest or weed control at 500 g/ha: 500 g ai/ha
Method in brief: as §2

[11] = system: blackgrass (Alopecurus myosuroides); experiment: Test A postemergence, visual injury rating; settings: Alopecurus myosuroides, post-emergence, 240 h, 0 is no effect, 100 is complete control, read-out: Blackgrass plant response rating (0 to 100 scale); for pest or weed control at 125 g/ha: 125 g ai/ha; for pest or weed control at 500 g/ha: 500 g ai/ha
Method in brief: as §2

[12] = system: galium (catchweed bedstraw, Galium aparine); experiment: Test A postemergence, visual injury rating; settings: Galium, post-emergence, 240 h, 0 is no effect, 100 is complete control, read-out: Galium plant response rating (0 to 100 scale); for pest or weed control at 125 g/ha: 125 g ai/ha; for pest or weed control at 500 g/ha: 500 g ai/ha
Method in brief: as §2

corn (Zea mays) = experiment: Test A postemergence, visual injury rating; settings: Zea mays, post-emergence, 240 h, 0 is no effect, 100 is complete control, read-out: Corn plant response rating (0 to 100 scale); for plant injury at 125 g/ha: 125 g ai/ha; for plant injury at 500 g/ha: 500 g ai/ha
Method in brief: as §2

[13] = system: barnyardgrass (Echinochloa crus-galli); experiment: Test A postemergence, visual injury rating; settings: Echinochloa crus-galli, post-emergence, 240 h, 0 is no effect, 100 is complete control, read-out: Barnyardgrass plant response rating (0 to 100 scale); for pest or weed control at 125 g/ha: 125 g ai/ha; for pest or weed control at 500 g/ha: 500 g ai/ha
Method in brief: as §2

[14] = system: giant foxtail (Setaria faberii); experiment: Test A postemergence, visual injury rating; settings: Setaria faberi, post-emergence, 240 h, 0 is no effect, 100 is complete control, read-out: Foxtail, Giant plant response rating (0 to 100 scale); for pest or weed control at 125 g/ha: 125 g ai/ha; for pest or weed control at 500 g/ha: 500 g ai/ha
Method in brief: as §2

[15] = system: wheat (Triticum aestivum); experiment: Test A postemergence, visual injury rating; settings: Triticum aestivum, post-emergence, 240 h, 0 is no effect, 100 is complete control, read-out: Wheat plant response rating (0 to 100 scale); for plant injury at 125 g/ha: 125 g ai/ha; for plant injury at 500 g/ha: 500 g ai/ha
Method in brief: as §2

[16] = system: Italian ryegrass (Lolium multiflorum); experiment: Test A postemergence, visual injury rating; settings: Lolium multiflorum, post-emergence, 240 h, 0 is no effect, 100 is complete control, read-out: Ryegrass, Italian plant response rating (0 to 100 scale); for pest or weed control at 125 g/ha: 125 g ai/ha; for pest or weed control at 500 g/ha: 500 g ai/ha
Method in brief: as §2

[17] = system: pigweed (Amaranthus retroflexus); experiment: Test A postemergence, visual injury rating; settings: Amaranthus retroflexus, post-emergence, 240 h, 0 is no effect, 100 is complete control, read-out: Pigweed plant response rating (0 to 100 scale); for pest or weed control at 125 g/ha: 125 g ai/ha; for pest or weed control at 500 g/ha: 500 g ai/ha
Method in brief: as §2

Row | Compound | pest or weed control at 16 g/ha [1] [%] | pest or weed control at 31 g/ha [1] [%] | pest or weed control at 62 g/ha [1] [%] | pest or weed control at 125 g/ha [1] [%] | pest or weed control at 16 g/ha (kochia (Kochia scoparia) [2]) [%] | pest or weed control at 31 g/ha (kochia (Kochia scoparia) [2]) [%] | pest or weed control at 62 g/ha (kochia (Kochia scoparia) [2]) [%] | pest or weed control at 125 g/ha (kochia (Kochia scoparia) [2]) [%] | pest or weed control at 16 g/ha [3] [%] | pest or weed control at 31 g/ha [3] [%] | pest or weed control at 62 g/ha [3] [%] | pest or weed control at 125 g/ha [3] [%] | pest or weed control at 125 g/ha (kochia (Kochia scoparia) [4]) [%] | pest or weed control at 500 g/ha (kochia (Kochia scoparia) [4]) [%] | pest or weed control at 125 g/ha [5] [%] | pest or weed control at 500 g/ha [5] [%] | pest or weed control at 250 g/ha [6] [%] | pest or weed control at 250 g/ha [7] [%] | plant injury at 250 g/ha (rice (Oryza sativa)) [%] | pest or weed control at 250 g/ha [8] [%] | other results
1 | O=C(OCCCC(F)(F)F)c1c(Br)cccc1Oc1ncc(Cl)cn1 [Compound 20, 4,4,4-trifluorobutyl 2-bromo-6-[(5-chloro-2-pyrimidinyl)oxy]benzoate] | 60 | 60 | 65 | 75 | 95 | 95 | 100 | 100 | 75 | 65 | 70 | 70 | 30 | 100 | 100 | 100 | 30 | 0 | 0 | 40 | pest or weed control at 125 g/ha [9]: 0%; pest or weed control at 500 g/ha [9]: 40%; pest or weed control at 125 g/ha (kochia (Kochia scoparia) [10]): 90%; pest or weed control at 500 g/ha (kochia (Kochia scoparia) [10]): 100%; pest or weed control at 125 g/ha [11]: 30%; pest or weed control at 500 g/ha [11]: 50%; pest or weed control at 125 g/ha [12]: 10%; pest or weed control at 500 g/ha [12]: 90%; plant injury at 125 g/ha (corn (Zea mays)): 30%; plant injury at 500 g/ha (corn (Zea mays)): 40%; pest or weed control at 125 g/ha [13]: 30%; pest or weed control at 500 g/ha [13]: 100%; pest or weed control at 125 g/ha [14]: 50%; pest or weed control at 500 g/ha [14]: 100%; plant injury at 125 g/ha [15]: 0%; plant injury at 500 g/ha [15]: 20%; pest or weed control at 125 g/ha [16]: 0%; pest or weed control at 500 g/ha [16]: 40%; pest or weed control at 125 g/ha [17]: 100%; pest or weed control at 500 g/ha [17]: 100%
2 | C=CCCOC(=O)c1c(Br)cccc1Oc1ncc(Cl)cn1 [Compound 21, 3-buten-1-yl 2-bromo-6-[(5-chloro-2-pyrimidinyl)oxy]benzoate] | 40 | 50 | 50 | 80 | 60 | 50 | 90 | 90 | 10 | 25 | 40 | 70 | 40 | 100 | 100 | 100 | 70 | 30 | 0 | 100 | pest or weed control at 125 g/ha [9]: 0%; pest or weed control at 500 g/ha [9]: 40%; pest or weed control at 125 g/ha (kochia (Kochia scoparia) [10]): 90%; pest or weed control at 500 g/ha (kochia (Kochia scoparia) [10]): 100%; pest or weed control at 125 g/ha [11]: 60%; pest or weed control at 500 g/ha [11]: 80%; pest or weed control at 125 g/ha [12]: 80%; pest or weed control at 500 g/ha [12]: 90%; plant injury at 125 g/ha (corn (Zea mays)): 30%; plant injury at 500 g/ha (corn (Zea mays)): 60%; pest or weed control at 125 g/ha [13]: 70%; pest or weed control at 500 g/ha [13]: 100%; pest or weed control at 125 g/ha [14]: 70%; pest or weed control at 500 g/ha [14]: 100%; plant injury at 125 g/ha [15]: 0%; plant injury at 500 g/ha [15]: 40%; pest or weed control at 125 g/ha [16]: 0%; pest or weed control at 500 g/ha [16]: 90%; pest or weed control at 125 g/ha [17]: 80%; pest or weed control at 500 g/ha [17]: 100%
